Source: PubChem BioAssay (NCI)
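Five compound concentrations were applied to cells in 96-well plates for 48 hours; endpoints were derived by simple linear interpolation of the resulting dose-response curve. TGI: concentration producing complete growth inhibition.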

Key:
Experiment in all cases: DTP human tumour cell line panel, 48 h
[1] = system: IGROV1 ovarian
[2] = system: HT29 colon
[3] = system: OVCAR-4 ovarian
[4] = system: HCT-116 colon
[5] = system: MALME-3M melanoma
[6] = system: UACC-257 melanoma
[7] = system: HL-60(TB) leukemia
[8] = system: K-562 leukemia
[9] = system: SF-539 CNS
[10] = system: MOLT-4 leukemia
[11] = system: U251 CNS
[12] = system: OVCAR-3 ovarian

Row | Structure (SMILES) | TGI [1] | TGI [2] | TGI [3] | TGI [4] | TGI [5] | TGI [6] | TGI [7] | TGI [8] | TGI [9] | TGI [10] | TGI [11] | TGI [12]
1 | O=C1Sc2sc(=S)sc2SC1c1ccccc1 (stereo not drawn) | > 100 µM | > 100 µM | > 31.6 µM | > 100 µM | > 83.5 µM | > 100 µM | > 31.6 µM | > 70.7 µM | > 100 µM | > 100 µM | > 100 µM | > 31.6 µM
2 | Cc1ccnn1CCc1ccc(Cl)cc1Cl | > 100 µM | > 100 µM | > 100 µM | > 100 µM | > 100 µM | > 100 µM | 42.4 µM | > 100 µM | 49.6 µM | 56.6 µM | > 100 µM | 45.3 µM
3 | COc1cccc(/C=N/[N+](C)(C)C)c1O | > 10 µM | > 10 µM | > 10 µM | > 10 µM | > 10 µM | > 10 µM | > 10 µM | > 10 µM | > 10 µM | > 10 µM | > 10 µM | > 10 µM
4 | CC1=CC2=C(C=O)C(=O)[C@](C)(O)[C@@H](O)C2=CO1 | > 100 µM | > 100 µM | > 100 µM | > 59.9 µM | > 70.2 µM | > 100 µM |  | > 90.9 µM | 97.5 µM | 41.3 µM | > 76.8 µM | 5.58 µM
5 | CS(C)(=O)=Nn1c(=O)n2n(c1=O)[C@H]1CC[C@@H]2C1 | > 100 µM | > 100 µM |  |  | > 100 µM | > 100 µM | > 100 µM | > 100 µM | > 100 µM | > 100 µM | > 100 µM | > 100 µM
6 | Cc1c2cnccc2c(C)c2c1c1ccccc1n2CCCCCCCl | > 50 µM | > 50 µM | > 29.3 µM | > 50 µM | > 50 µM | > 50 µM | 40.6 µM | > 50 µM | > 50 µM | > 50 µM | > 50 µM | > 50 µM
7 | COc1ccc2[nH]c(=O)cc(C)c2c1[N+](=O)[O-] | > 100 µM | > 100 µM | > 100 µM | > 100 µM | > 100 µM | > 100 µM | > 100 µM | > 100 µM | > 100 µM | > 100 µM | > 100 µM | > 100 µM
8 | O=C(O)C(C1NCCS1)N1C(=O)c2ccccc2C1=O (stereo not drawn) | > 100 µM | > 100 µM | > 100 µM | > 100 µM | > 100 µM | > 100 µM | > 100 µM | > 100 µM | > 100 µM | > 100 µM | > 100 µM | > 100 µM
